Experimental data published in patent publication US11202776B2, “Treatment of gastroparesis with triazaspiro[4.5]decanone” (Millennium Pharmaceuticals, Inc., priority 2017, dated 2021).
Structures can show the parent of a compound that is named as a salt. Where two headings read alike, the source gives them in different places.

Key:
[1] = Phase I single-ascending dose (SAD) pharmacokinetics incl. food effect, plasma concentration of the Compound; format: in vivo, human; conditions: for half-life / AUC(0-inf) / AUC(0-t) / Cmax / Tmax: human, plasma
Experimental: (§1) A phase I randomized, double-blind, placebo-controlled, adaptive-design, single-ascending dose (SAD) and multiple-ascending dose (MAD) study was conducted in healthy human subjects to evaluate the safety, tolerability, pharmacokinetics (PK), pharmacodynamics (PD), food effect, and optimal oral dose of 3-((1-cyclohexyl-4-oxo-8-(4-oxo-4-phenylbutyl)-1,3,8-triazaspiro[4.5]decan-3-yl)methyl)benzoic acid maleate (hereinafter, “the Maleate Salt”). The SAD phase included an arm to evaluate food effect on the PK of the Maleate Salt. The SAD phase also evaluated the effect of the Maleate Salt on ECG parameters, including an assessment of QT-interval changes using exposure-response analysis.
(§2) The Maleate Salt was formulated in the study as immediate-release, hard gelatin capsules for oral administration. Each capsule contained 5 mg or 25 mg of the Maleate Salt, as well as microcrystalline cellulose NF (AVICEL® PH-102), sodium starch glycolate NF (EXPLOTAB®), and magnesium stearate NF, all filled into a size 3 hard gelatin capsule. A matching placebo containing the same amount of microcrystalline cellulose NF in place of the Maleate Salt was used in the study. The Maleate Salt capsules and matching placebo capsules were packaged in high-density polyethylene (HDPE) bottles with polypropylene caps and stored at controlled conditions per the USP.
(§3) A total of 54 subjects received at least 1 dose of the Maleate Salt, ranging from 5 mg to the maximum single PO dose of 300 mg. Six subjects received a maximum single PO dose of 300 mg and 5 subjects received a total of 900 mg of the Maleate Salt over 5-day period (100 mg BID for 4 days with single 100 mg on Day 5).
The SAD phase had 7 cohorts dosed at 5 mg (cohort 1), 10 mg (cohort 2), 25 mg (cohort 3), 50 mg (cohort 4), 100 mg (cohort 5), 200 mg (cohort 6), and 300 mg (cohort 7) of the Maleate Salt. In each cohort, there were 6 active- and 2 placebo-treated subjects. Subjects were administered the Maleate Salt in the fasting state with 1 exception: subjects in the 25 mg cohort (cohort 3) received the Maleate Salt while fasting and again after a high-fat breakfast to determine food effect on PK.
Mean plasma concentration-time profiles for 3-((1-cyclohexyl-4-oxo-8-(4-oxo-4-phenylbutyl)-1,3,8-triazaspiro[4.5]decan-3-yl)methyl)benzoic acid (hereinafter, “the Compound”) following a single PO dose of the Maleate Salt are shown in FIG. 1.
In evaluating food effect on the PK of the Maleate Salt, subjects on Day 1 in cohort 3 were administered a single dose of the Maleate Salt at 25 mg or placebo in the fasted state. On Day 3, the same subjects received an identical dose 30 minutes after consumption of a standardized, high-fat, high-calorie breakfast.

[2] = Phase I multiple-ascending dose (MAD) pharmacokinetics, BID Days 1-4 and single morning dose Day 5; format: in vivo, human; conditions: for Tlast / Cmax / Tmax / half-life / AUC / concentration at 12 h / concentration at 24 h: fasting; for Cav, ss / Cmin / Tmin / AI: steady state; for AI: Day 5, mean; for Cmax / Tmax / half-life / AUC / concentration at 12 h / concentration at 24 h: human, plasma; for Cmax / Tmax / half-life / AUC: po; for AUC: read-out: AUC12; for concentration at 12 h / concentration at 24 h: read-out: Clast
Experimental: as §1, §2, §3
The MAD phase had 2 cohorts dosed at 50 and 100 mg of the Maleate Salt. In each cohort, there were 6 active- and 2 placebo-treated subjects. The Maleate Salt was administered to fasting subjects BID (morning and evening) on Days 1 through 4 and as a single morning dose on Day 5.
On Day 1, mean T1/2 was approximately 2 h for both 50 and 100 mg BID doses. On Day 5, mean T1/2 was 11.0 and 6.2 h following 50 and 100 mg BID doses, respectively. For T1/2 determination, the plasma samples for Day 1 were only collected to 12 h, whereas the plasma samples for Day 5 were collected to 24 h.

D2 receptor = molecular target: T1, D2 receptor (Homo sapiens, UniProt P14416); assay: Clinical PD: serum prolactin concentration as marker of pharmacologic activity (D2 receptor target engagement); format: in vivo
T1 construct: from tissue; host or cells: healthy human subjects in vivo (lactotroph cells of the anterior pituitary gland)
Experimental: as §1
In the same phase I study, serum prolactin concentrations were evaluated as a marker of pharmacologic activity (D2 receptor target engagement). Prolactin is primarily secreted from lactotroph cells of the anterior pituitary gland, and the release of prolactin from these cells is under inhibitory control by DA. Fitzgerald and Dinan, J. Psychopharmacol. 2008, 22, 12-19.
The increases were substantial compared to placebo. The prolactin response was maximal at the 10 mg dose of the Maleate Salt in the SAD phase.

[3] = po, 5 mg, single PO dose 5 mg, fasted, healthy subjects
[4] = po, 10 mg, single PO dose 10 mg, fasted, healthy subjects
[5] = po, 25 mg, single PO dose 25 mg, fasted, healthy subjects
[6] = po, 25 mg, single PO dose 25 mg, fed (high-fat breakfast), healthy subjects
[7] = po, 50 mg, single PO dose 50 mg, fasted, healthy subjects
[8] = po, 100 mg, single PO dose 100 mg, fasted, healthy subjects
[9] = po, 200 mg, single PO dose 200 mg, fasted, healthy subjects
[10] = po, 300 mg, single PO dose 300 mg, fasted, healthy subjects

T1 sequence (P14416 whole entry): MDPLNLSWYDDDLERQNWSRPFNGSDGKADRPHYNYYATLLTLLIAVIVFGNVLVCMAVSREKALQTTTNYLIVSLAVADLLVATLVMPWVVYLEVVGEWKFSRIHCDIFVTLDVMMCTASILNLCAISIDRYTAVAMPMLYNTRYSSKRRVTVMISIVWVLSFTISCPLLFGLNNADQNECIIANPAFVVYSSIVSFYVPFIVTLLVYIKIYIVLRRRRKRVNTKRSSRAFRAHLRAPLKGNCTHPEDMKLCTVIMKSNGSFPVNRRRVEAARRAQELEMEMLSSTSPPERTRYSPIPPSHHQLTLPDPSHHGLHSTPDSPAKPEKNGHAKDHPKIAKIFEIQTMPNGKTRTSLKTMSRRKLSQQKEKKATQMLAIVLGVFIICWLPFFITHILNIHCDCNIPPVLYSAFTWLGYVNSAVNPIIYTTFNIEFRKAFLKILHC

## O=C(O)c1cccc(CN2CN(C3CCCCC3)C3(CCN(CCCC(=O)c4ccccc4)CC3)C2=O)c1 [Compound 1, 3-((1-cyclohexyl-4-oxo-8-(4-oxo-4-phenylbutyl)-1,3,8-triazaspiro[4.5]decan-3-yl)methyl)benzoic acid]
[1]; single PO dose, over 24 h
  Plasma concentration-time profile: rapid absorption and rapid elimination
[2]; MAD phase, 50 or 100 mg BID
  Plasma concentration-time profile: rapid absorption and rapid elimination

## O=C(O)c1cccc(CN2CN(C3CCCCC3)C3(CCN(CCCC(=O)c4ccccc4)CC3)C2=O)c1 [the Maleate Salt, 3-((1-cyclohexyl-4-oxo-8-(4-oxo-4-phenylbutyl)-1,3,8-triazaspiro[4.5]decan-3-yl)methyl)benzoic acid maleate]
[1]; 25 mg single dose, high-fat meal prior to dosing vs fasted
  Food effect on Tmax: did not alter Tmax
[1]; SAD phase, fasted conditions, 5-300 mg
  Exposure versus dose administered: approximately proportional to the dose administered
[1]; oral, across all cohorts in the SAD phase, read-out: Arithmetic mean T1/2 in fasted subjects (converted)
  half-life: ~4 h
[1]; [3]
  AUC(0-inf): 4.5 ng·h/mL
  AUC(0-t): 4.3 ng·h/mL
  Cmax: 2.1 ng/mL
[1]; po, 5 mg, single PO dose 5 mg, fasted, healthy subjects, read-out: T1/2 (converted)
  half-life: ~1.6 h
[1]; po, 5 mg, single PO dose 5 mg, fasted, healthy subjects, read-out: Tmax
  Tmax: 0.83 h
[1]; [4]
  AUC(0-inf): 13.1 ng·h/mL
  AUC(0-t): 12.9 ng·h/mL
  Cmax: 6.2 ng/mL
[1]; po, 10 mg, single PO dose 10 mg, fasted, healthy subjects, read-out: T1/2 (converted)
  half-life: ~1.6 h
[1]; po, 10 mg, single PO dose 10 mg, fasted, healthy subjects, read-out: Tmax
  Tmax: 1.21 h
[1]; [5]
  AUC(0-inf): 30.4 ng·h/mL
  AUC(0-t): 30.5 ng·h/mL
  Cmax: 10.5 ng/mL
[1]; po, 25 mg, single PO dose 25 mg, fasted, healthy subjects, read-out: T1/2 (converted)
  half-life: 6 h
[1]; po, 25 mg, single PO dose 25 mg, fasted, healthy subjects, read-out: Tmax
  Tmax: 1.8 h
[1]; [6]
  AUC(0-inf): 17.2 ng·h/mL
  AUC(0-t): 17.6 ng·h/mL
  Cmax: 6.7 ng/mL
[1]; po, 25 mg, single PO dose 25 mg, fed (high-fat breakfast), healthy subjects, read-out: T1/2 (converted)
  half-life: 7 h
[1]; po, 25 mg, single PO dose 25 mg, fed (high-fat breakfast), healthy subjects, read-out: Tmax
  Tmax: 2.2 h
[1]; [7]
  AUC(0-inf): 56.7 ng·h/mL
  AUC(0-t): 53.2 ng·h/mL
  Cmax: 22 ng/mL
[1]; po, 50 mg, single PO dose 50 mg, fasted, healthy subjects, read-out: T1/2 (converted)
  half-life: 3.1 h
[1]; po, 50 mg, single PO dose 50 mg, fasted, healthy subjects, read-out: Tmax
  Tmax: 1.04 h
[1]; [8]
  AUC(0-inf): 180 ng·h/mL
  AUC(0-t): 104 ng·h/mL
  Cmax: 48.3 ng/mL
[1]; po, 100 mg, single PO dose 100 mg, fasted, healthy subjects, read-out: T1/2 (converted)
  half-life: 5.4 h
[1]; po, 100 mg, single PO dose 100 mg, fasted, healthy subjects, read-out: Tmax
  Tmax: 1.78 h
[1]; [9]
  AUC(0-inf): 242 ng·h/mL
  AUC(0-t): 240 ng·h/mL
  Cmax: 106 ng/mL
[1]; po, 200 mg, single PO dose 200 mg, fasted, healthy subjects, read-out: T1/2 (converted)
  half-life: 5.4 h
[1]; po, 200 mg, single PO dose 200 mg, fasted, healthy subjects, read-out: Tmax
  Tmax: 1.24 h
[1]; [10]
  AUC(0-inf): 446 ng·h/mL
  AUC(0-t): 421 ng·h/mL
  Cmax: 192 ng/mL
[1]; po, 300 mg, single PO dose 300 mg, fasted, healthy subjects, read-out: T1/2 (converted)
  half-life: 5.1 h
[1]; po, 300 mg, single PO dose 300 mg, fasted, healthy subjects, read-out: Tmax
  Tmax: 1.88 h
[1]; po, 25 to 300 mg dose levels, single PO dose, read-out: Arithmetic mean T1/2 in fasted subjects (converted)
  half-life: 3.1 to 6 h
[1]; po, SAD phase, single PO doses, read-out: Median Tmax
  Tmax: ~1.1 h
[2]; 50 mg BID PO, Day 1
  Tlast: 12.0 h
  concentration at 12 h: 0.2 ng/mL
[2]; 50 mg BID PO, Day 5
  Tlast: 24.0 h
  Cav, ss: 4.84 ng/mL
  Cmin: 0.32 ng/mL
  Tmin: 8.0 h
  concentration at 24 h: 0.18 ng/mL
[2]; 50 mg BID PO
  AI: 1.89
[2]; 100 mg BID PO, Day 1
  Tlast: 12.0 h
  concentration at 12 h: 0.42 ng/mL
[2]; 100 mg BID PO, Day 5
  Tlast: 24.0 h
  Cav, ss: 16.71 ng/mL
  Cmin: 0.65 ng/mL
  Tmin: 4.8 h
  concentration at 24 h: 0.28 ng/mL
[2]; 100 mg BID PO
  AI: 1.38
[2]; 50 or 100 mg BID dosing
  Accumulation for AUC12: less than 30%
  Accumulation for Cmax: less than 40%
[2]; 50 mg, 50 mg BID PO, Day 1
  Cmax: 23.3 ng/mL
  Tmax: 1.55 h
  AUC: 53.6 ng·h/mL
[2]; 50 mg, 50 mg BID PO, Day 1 (samples collected to 12 h)
  half-life: ~2 h
[2]; 50 mg, 50 mg BID PO, Day 5
  Cmax: 31.2 ng/mL
  Tmax: 1.17 h
  AUC: 58.1 ng·h/mL
[2]; 50 mg, 50 mg BID PO, Day 5 (samples collected to 24 h)
  half-life: 11 h
[2]; 100 mg, 100 mg BID PO, Day 1
  Cmax: 71.5 ng/mL
  Tmax: 1.03 h
  AUC: 152 ng·h/mL
[2]; 100 mg, 100 mg BID PO, Day 1 (samples collected to 12 h)
  half-life: ~2 h
[2]; 100 mg, 100 mg BID PO, Day 5
  Cmax: 71.6 ng/mL
  Tmax: 1.53 h
  AUC: 200 ng·h/mL
[2]; 100 mg, 100 mg BID PO, Day 5 (samples collected to 24 h)
  half-life: 6.2 h
D2 receptor; MAD phase, after BID dosing for 5 days
  Accumulation in serum prolactin: little if any accumulation
D2 receptor; SAD phase
  Dose at which the prolactin response was maximal: 10 mg
D2 receptor; across all 48 single-dose administrations
  Median serum prolactin Tmax: approximately 1.1 h
D2 receptor; following oral administration
  Increases in serum prolactin compared to placebo: substantial
D2 receptor; following oral administration, SAD and MAD phases
  Serum prolactin concentration: increased rapidly
